From PMC3806465, “Discovery and Evaluation of Thiazinoquinones as Anti-Protozoal Agents” (Marine Drugs, 2013)
Where two headings read alike, the source gives them in different places.

Experiments:
[1] = test system: Trypanosoma cruzi, Tulahuen C4 strain, amastigotes stage; assay: In vitro activity against T. cruzi; format: cell-based
Protocol: (§1) The in vitro activities against the protozoan parasites T.b. rhodesiense, T. cruzi, L. donovani, and P. falciparum and cytotoxicity assessment against L6 cells were determined as reported elsewhere.

[2] = test system: Plasmodium falciparum, K1 strain, IEF stage; assay: In vitro activity against P. falciparum K1; format: cell-based; details: for SI Pf: Selectivity index for P. falciparum = IC50 L6/IC50 Pf
Protocol: as §1

[3] = test system: Trypanosoma brucei rhodesiense, STIB 900 strain, trypomastigotes stage; assay: In vitro activity against T. b. rhodesiense; format: cell-based
Protocol: as §1

[4] = test system: Leishmania donovani, MHOM-ET-67/L82 strain, amastigote/axenic stage; assay: In vitro activity against L. donovani; format: cell-based
Protocol: as §1

[5] = test system: L6 rat skeletal myoblast cell line; assay: Cytotoxicity against L6 cells; format: cell-based
Protocol: as §1

[6] = Trypanosoma cruzi, TULAHUEN, Tulahuen C4, amastigotes, average of two independent assays, read-out: IC50 T. cruzi
[7] = Trypanosoma brucei, STIB 900, trypomastigotes, average of two independent assays, read-out: IC50 T. b. rhod.
[8] = Leishmania donovani, MHOM-ET-67/L82, axenic amastigotes, average of two independent assays, read-out: IC50 L. don.
[9] = Rattus norvegicus, Myoblast, cytotoxicity, L6 rat skeletal myoblasts, average of two independent assays, read-out: IC50 L6
[10] = Plasmodium falciparum, K1 dual drug resistant strain, IEF stage, average of two independent assays, read-out: IC50 P. falc. K1

| SMILES | IC50 [1, 6] | IC50 [3, 7] | IC50 [4, 8] | IC50 [5, 9] | IC50 [2, 10] | SI Pf [2] | melting point | other results |
| --- | --- | --- | --- | --- | --- | --- | --- | --- |
| O=C(Cn1ccnc1[N+](=O)[O-])NCc1ccccc1 [Benznidazole, reference compound] | 1.8 µM |  |  |  |  |  |  | IC50 ([1]; Trypanosoma cruzi, TULAHUEN, Myoblast, in Rattus norvegicus, read-out: IC50 T. cruzi, Tulahuen C2C4, amastigote forms in L6 rat myoblasts, positive control): 0.352 µg/mL; IC50 ([1]; Tulahuen C4, amastigotes, average of two independent assays, read-out: IC50 T. cruzi): 1.4 µM |
| CCN(CC)CCCC(C)Nc1ccnc2cc(Cl)ccc12 (stereo not drawn) [Chloroquine, reference compound] |  |  |  |  |  |  |  | IC50 ([2]; Plasmodium falciparum, K1, read-out: IC50 P. falc. K1, K1 dual drug resistant strain, IEF stage, average of two independent assays): 0.2 µM; IC50 ([2]; Plasmodium falciparum, K1, read-out: IC50 P. falciparum, K1 (chloroquine and pyrimethamine resistant), erythrocytic stages, positive control): 0.065 µg/mL; IC50 ([2]; read-out: IC50 P. falc. K1, K1 dual drug resistant strain, IEF stage, average of two independent assays): 0.28 µM |
| O=C(O)c1ccc2c(n1)C(=O)C1=C(C2=O)S(=O)(=O)CCN1 [Compound 2, ascidiathiazone A] | > 290 µM | 3.1 µM | 270 µM | 167 µM | 3.3 µM | 50 |  | IC50 ([5]; cytotoxicity, L6 rat skeletal myoblasts, average of two independent assays, read-out: IC50 L6): 170 µM |
| COC(=O)c1ccc2c(n1)C(=O)C1=C(C2=O)S(=O)(=O)CCN1 [Compound 3] | 180 µM | 6.6 µM | 31 µM | 140 µM | 2.5 µM | 56 |  |  |
| O=C(O)c1ccc2c(n1)C(=O)C1=C(C2=O)S(=O)(=O)C=CN1 [Compound 4] | > 290 µM | 4 µM | 190 µM | 180 µM | 0.6 µM | 300 |  |  |
| CCCCNC(=O)c1ccc2c(n1)C(=O)C1=C(C2=O)S(=O)(=O)CCN1 [Compound 7a, N-n-Butyl-5,10-dioxo-3,4,5,10-tetrahydro-2H-[1,4]thiazino[2,3-g]quinoline-7-carboxamide 1,1-Dioxide] | 63 µM | 5.5 µM | > 280 µM | 24 µM | 0.94 µM | 26 | 200 °C (dec.) |  |
| CCCCCNC(=O)c1ccc2c(n1)C(=O)C1=C(C2=O)S(=O)(=O)CCN1 [Compound 7b, N-n-Pentyl-5,10-dioxo-3,4,5,10-tetrahydro-2H-[1,4]thiazino[2,3-g]quinoline-7-carboxamide 1,1-Dioxide] | 15 µM | 1.8 µM | 29 µM | 23 µM | 0.62 µM | 37 | 200 °C (dec.) |  |
| CCCCCCCCNC(=O)c1ccc2c(n1)C(=O)C1=C(C2=O)S(=O)(=O)CCN1 [Compound 7c, N-n-Octyl-5,10-dioxo-3,4,5,10-tetrahydro-2H-[1,4]thiazino[2,3-g]quinoline-7-carboxamide 1,1-Dioxide] | 15 µM | 3.9 µM | 48 µM | 12 µM | 1.1 µM | 10 | 200 °C (dec.) |  |
| O=C(NCc1ccccc1)c1ccc2c(n1)C(=O)C1=C(C2=O)S(=O)(=O)CCN1 [Compound 7d, N-Benzyl-5,10-dioxo-3,4,5,10-tetrahydro-2H-[1,4]thiazino[2,3-g]quinoline-7-carboxamide 1,1-Dioxide] | 43 µM | 1.9 µM | 21 µM | 15 µM | 1.1 µM | 14 | 200 °C (dec.) |  |
| O=C(NCCc1ccccc1)c1ccc2c(n1)C(=O)C1=C(C2=O)S(=O)(=O)CCN1 [Compound 7e, N-Phenethyl-5,10-dioxo-3,4,5,10-tetrahydro-2H-[1,4]thiazino[2,3-g]quinoline-7-carboxamide 1,1-Dioxide] | 140 µM | 2.4 µM | 160 µM | 110 µM | 1.5 µM | 72 | 240 °C (dec.) |  |
| O=C(NCCCc1ccccc1)c1ccc2c(n1)C(=O)C1=C(C2=O)S(=O)(=O)CCN1 [Compound 7f, N-(3-Phenylpropyl)-5,10-dioxo-3,4,5,10-tetrahydro-2H-[1,4]thiazino[2,3-g] quinoline-7-carboxamide 1,1-Dioxide] | 27 µM | 2.4 µM | 47 µM | 13 µM | 1.4 µM | 10 | 204 °C (dec.) |  |
| CC(C)=CCC/C(C)=C/CNC(=O)c1ccc2c(n1)C(=O)C1=C(C2=O)S(=O)(=O)CCN1 [Compound 7g, (E)-N-(3,7-Dimethylocta-2,6-dien-1-yl)-5,10-dioxo-3,4,5,10-tetrahydro-2H-[1,4]thiazino [2,3-g]quinoline-7-carboxamide 1,1-Dioxide] | 41 µM | 3.4 µM | 83 µM | 24 µM | 1.6 µM | 15 | 200 °C (dec.) |  |
| C#CCNC(=O)c1ccc2c(n1)C(=O)C1=C(C2=O)S(=O)(=O)CCN1 [Compound 7h, N-(Prop-2-yn-1-yl)-5,10-dioxo-3,4,5,10-tetrahydro-2H-[1,4]thiazino[2,3-g]quinoline-7-carboxamide 1,1-Dioxide] | 53 µM | > 150 µM | 170 µM | 41 µM | 2.4 µM | 17 | 280 °C (dec.) |  |
| COCCNC(=O)c1ccc2c(n1)C(=O)C1=C(C2=O)S(=O)(=O)CCN1 [Compound 7i, N-(2-Methoxyethyl)-5,10-dioxo-3,4,5,10-tetrahydro-2H-[1,4]thiazino[2,3-g] quinoline-7-carboxamide 1,1-Dioxide] |  |  |  |  |  |  | 200 °C (dec.) |  |
| COC(=O)CNC(=O)c1ccc2c(n1)C(=O)C1=C(C2=O)S(=O)(=O)CCN1 [Compound 7j, Methyl 2-(1,1-Dioxido-5,10-dioxo-3,4,5,10-tetrahydro-2H-[1,4]thiazino[2,3-g]quinoline-7-carboxamido)acetate] | 250 µM | 120 µM | > 260 µM | 110 µM | 3.4 µM | 31 | 200 °C (dec.) |  |
| CCCCNC(=O)c1ccc2c(n1)C(=O)C1=C(C2=O)S(=O)(=O)C=CN1 [Compound 8a, N-n-Butyl-5,10-dioxo-5,10-dihydro-4H-[1,4]thiazino[2,3-g]quinoline-7-carboxamide 1,1-Dioxide] | 63 µM | 3.7 µM | > 280 µM | 23 µM | 0.7 µM | 33 | 200 °C (dec.) |  |
| CCCCCNC(=O)c1ccc2c(n1)C(=O)C1=C(C2=O)S(=O)(=O)C=CN1 [Compound 8b, N-n-Pentyl-5,10-dioxo-5,10-dihydro-4H-[1,4]thiazino[2,3-g]quinoline-7-carboxamide 1,1-Dioxide] | 48 µM | 3.6 µM | > 270 µM | 4.8 µM | 1.5 µM | 3 | 280 °C (dec.) |  |
| COC(=O)CNC(=O)c1ccc2c(n1)C(=O)C1=C(C2=O)S(=O)(=O)C=CN1 [Compound 8j, Methyl 2-(1,1-dioxido-5,10-dioxo-5,10-dihydro-4H-[1,4]thiazino[2,3-g]quinoline-7-carboxamido)acetate] | 160 µM | 35 µM | 220 µM | 100 µM | 1.8 µM | 57 |  |  |
| O=C(O)CNC(=O)c1ccc2c(n1)C(=O)C1=C(C2=O)S(=O)(=O)C=CN1 [Compound 8k, 2-(1,1-Dioxido-5,10-dioxo-5,10-dihydro-4H-[1,4]thiazino[2,3-g]quinoline-7-carboxamido)acetic Acid] | 160 µM | 42 µM | > 280 µM | 110 µM | 1.2 µM | 93 |  |  |
| COC(=O)c1cc2c(s1)C(=O)C1=C(NCCS1(=O)=O)C2=O [Compound 10b, Methyl 5,9-Dioxo-2,3,5,9-tetrahydro-1H-thieno[3′,2′:4,5]benzo [1,2-b][1,4]thiazine-7-carboxylate 4,4-Dioxide] |  |  |  |  |  |  | 280 °C (dec.) |  |
| O=C(O)c1cc2c(s1)C(=O)C1=C(NCCS1(=O)=O)C2=O [Compound 11b, 5,9-Dioxo-2,3,5,9-tetrahydro-1H-thieno[3′,2′:4,5]benzo[1,2-b][1,4] thiazine-7-carboxylic Acid 4,4-Dioxide] |  |  |  |  |  |  | 200 °C (dec.) |  |
| Nc1nc(N)nc(Nc2ccc([As]3SCC(CO)S3)cc2)n1 (stereo not drawn) [Melarsoprol, reference compound] |  |  |  |  |  |  |  | IC50 ([3]; Trypanosoma brucei, read-out: IC50 T. b. rhod., STIB 900, trypomastigotes, average of two independent assays): 0.005 µM; IC50 ([3]; Trypanosoma brucei, read-out: IC50 T.b. rhodesiense, STIB900, trypomastigote forms, positive control): 0.004 µg/mL; IC50 ([3]; read-out: IC50 T. b. rhod., STIB 900, trypomastigotes, average of two independent assays): 0.01 µM |
| CCCCCCCCCCCCCCCCOP(=O)([O-])OCC[N+](C)(C)C [Miltefosine, reference compound] |  |  | 0.5 µM |  |  |  |  | IC50 ([4]; Leishmania donovani, MHOM/ET/67/L82, axenic amastigote forms, positive control, read-out: IC50 L. donovani): 0.213 µg/mL; IC50 ([4]; MHOM-ET-67/L82, axenic amastigotes, average of two independent assays, read-out: IC50 L. don.): 0.53 µM |
| COc1cc([C@@H]2c3cc4c(cc3[C@H](O)[C@H]3COC(=O)[C@H]23)OCO4)cc(OC)c1OC [Podophyllotoxin, reference compound] |  |  |  |  |  |  |  | IC50 ([5]; Rattus norvegicus, L6, read-out: IC50 L6 cells, rat skeletal myoblasts, positive control): 0.004 µg/mL; IC50 ([5]; Rattus norvegicus, Myoblast, read-out: IC50 L6, cytotoxicity, L6 rat skeletal myoblasts, average of two independent assays): 0.01 µM; IC50 ([5]; read-out: IC50 L6, cytotoxicity, L6 rat skeletal myoblasts, average of two independent assays): 0.019 µM |
